Experimental data from patent EP4679096A1, “BIOMARKERS AND METHOD FOR ESTIMATING BRAIN NEURODEGENERATIVE CONDITION” (SHIMADZU CORPORATION, priority 2023, dated 2024).
Peptide text beside a SMILES is read from it.

Test: Effect of plasma handling (thawed, about 2 hours at room temperature, re-frozen: RT2h-FT1) on NI of Ng peptides
Format: in vitro ADME, human
Conditions: FIG. 1
Procedure: Among the 161 samples, samples obtained by thawing cryopreserved samples, placing the samples at room temperature for about 2 hours, and then re-freezing the samples are also included. In order to investigate the influence of this process on the measured value of the Ng peptide, the Ng peptide to be analyzed was evaluated using a part of the sample. In the measurement of the sample that was thawed, left at room temperature for about 2 hours, and then re-frozen (sample under the RT2h-FT1 condition), the above [purification] [mass spectrometry] was performed except that SIL-Ng50-78 was used as the internal standard peptide, and the internal standard peptide was diluted with the first buffer. The above [purification] [mass spectrometry] was also performed on the samples not subjected to the RT2h-FT1 process (samples under control conditions). For these, data processing was performed using data obtained by simultaneously measuring SIL-Ng50-78 and SIL-Ng45-75 and SIL-Ng24-75 such that the measured value of the RT2h-FT1 condition normalized with SIL-Ng50-78 was NI normalized with SIL-Ng45-75 and SIL-Ng24-75.
From this, it can be seen that the decomposition of the Ng peptide proceeds by the time for which the plasma is stored in a thawed state and/or freeze-thawing. […]

Row | SMILES | change of NI under the RT2h-FT1 condition compared with the Control condition (decomposition in plasma)
1 | CC[C@H](C)[C@H](NC(=O)[C@@H](N)CCCCN)C(=O)N[C@@H](CCCCN)C(=O)N[C@@H](CO)C(=O)NCC(=O)N[C@@H](CCC(=O)O)C(=O)N[C@@H](CCCNC(=N)N)C(=O)NCC(=O)N[C@@H](CCCNC(=N)N)C(=O)N[C@@H](CCCCN)C(=O)NCC(=O)N1CCC[C@H]1C(=O)NCC(=O)N1CCC[C@H]1C(=O)NCC(=O)NCC(=O)N1CCC[C@H]1C(=O)NCC(=O)NCC(=O)N[C@@H](C)C(=O)NCC(=O)N[C@H](C(=O)N[C@@H](C)C(=O)N[C@@H](CCCNC(=N)N)C(=O)NCC(=O)NCC(=O)N[C@@H](C)C(=O)NCC(=O)NCC(=O)NCC(=O)N1CCC[C@H]1C(=O)O)C(C)C [Ng45-75] (H-KIKSGERGRKGPGPGGPGGAGVARGGAGGGP-OH) | smaller decrease width due to decomposition than the other Ng peptides
2 | CC(C)[C@H](NC(=O)CNC(=O)[C@H](C)NC(=O)CNC(=O)CNC(=O)[C@@H]1CCCN1C(=O)CNC(=O)CNC(=O)[C@@H]1CCCN1C(=O)CNC(=O)[C@@H]1CCCN1C(=O)CNC(=O)[C@H](CCCCN)NC(=O)[C@H](CCCNC(=N)N)NC(=O)CNC(=O)[C@H](CCCNC(=N)N)NC(=O)[C@@H](N)CCC(=O)O)C(=O)N[C@@H](C)C(=O)N[C@@H](CCCNC(=N)N)C(=O)NCC(=O)NCC(=O)N[C@@H](C)C(=O)NCC(=O)NCC(=O)NCC(=O)N1CCC[C@H]1C(=O)O [Ng50-75] (H-ERGRKGPGPGGPGGAGVARGGAGGGP-OH) | smaller decrease width due to decomposition than the other Ng peptides
